According to patent US20050042291A1, “Diffusion layer modulated solids” (priority 2003, published 2005):
In brackets after ≈: the same amount, converted by molar mass. Counter-ions that a name gives are not always drawn. Like-named read-outs stand apart in the source and are kept apart here. Each block holds one compound with its values, some of them ahead of it.

Assays:
[1] = Intrinsic dissolution rate of co-compressed pellets, fiber optic automated rotating disk dissolution method; format: physicochemical; conditions: for Percent dissolved in 60 minutes at pH 6: pH 6 (0.01 M phosphate) with 0.6% SLS
Procedure: The 0.48 cm ( 3/16 inch) HSS rod was inserted into the die to a distance of 1.9 cm (¾ inch), leaving 0.64 (¼ inch) for placement of 20±1 mg of the drug or drug mixture into the 0.48 cm ( 3/16 inch) diameter hole.
After adding the drug, the punch (or HSS rod) was inserted into the die and the entire die assembly was placed into a 3-bolt holder that was used to hold a 0.64 cm (¼ inch) SS base plate firmly against the powder bed during compression in the die. Compression of the powder was achieved on a Carver press using a stepwise increase in the force up to 4450 newtons (1000 pounds force) (i.e., 255 MPa (37000 psi)) and then a progressive decrease in pressure as described in the following. A force of 1110 newtons (250 pounds force) was applied for approximately 10 seconds and the pressure was removed. This was repeated at 2220 newtons (500 pounds force), 3330 newtons (750 pounds force), and 4450 newtons (1,000 pounds force). The 4450 newtons (1000 pounds force) (i.e., 255 MPa (37000 psi)) was applied again and maintained for 1 minute. The pressure was decreased stepwise by simply lowering the pressure and then holding it at 3330 newtons (750 pounds force) for 10 seconds and repeating this at 2220 newtons (500 pounds force), 1110 newtons (250 pounds force) and, finally, the pressure was removed.
The die and holder was removed from the Carver press and the punch (or HSS rod) was twisted to loosen the rod and to allow the pellet to relax or expand from the backside. After a three minute (minimum) relaxation period, the set-screw on the HSS rod was firmly secured to the die.
The entire punch and die assembly containing the drug pellet with one face of the drug pellet exposed was removed as a unit from the holder and the intrinsic dissolution rate was determined as described below.
The HSS rod in the die containing the drug compact with one face of the drug pellet exposed was attached to an electric motor with a fixed speed of 300 revolutions per minute (rpm). The die was rotated (300 rpm) while the die (containing the drug pellet) was lowered at t=0 into the center of the dissolution vessel consisting of a jacketed 800 mL beaker (Pyrex, No.1000) containing 500 mL of the desired de-gassed (house vacuum, 3 minutes) dissolution medium maintained at 37±0.5° C. The dissolution medium consisted of either dilute HCl (0.01, 0.001 or 0.0001 N HCl) or pH 6, 0.01 M phosphate containing 0.6% SLS (sodium lauryl sulfate). The die was positioned such that the drug compact was approximately 6.4 cm (2.5 inches) from the bottom of the 500 mL dissolution beaker and approximately the same distance from the liquid surface. Continuous monitoring by ultraviolet (UV) spectroscopy was conducted by the fiber optic UV automated dissolution method or samples were taken automatically by the HPLC sampling method as described below.
The Fiber Optic Dissolution System. The fiber optic UV automated dissolution system employed an Ocean Optics PC Model 1000 fiber optic spectrophotometer connected to a 120 mHz Pentium computer. The dissolution process was monitored continuously at 290 nm with the fiber optic probe with 5-10 data points taken per minute. The data was processed automatically with a Visual Basic application program that allowed the data to be collected automatically from the spectrophotometer.
The delavirdine mesylate intrinsic dissolution rate profile was plotted in Excel and the intrinsic dissolution rate was calculated automatically by the program. The dissolution period was usually 15 minutes, but could be as short as approximately 1 minute, or as long as a few hours.
Calculation of the Intrinsic Dissolution Rate.

[2] = Rat oral bioavailability of tipranavir disodium spray dried powders; format: in vivo; conditions: plasma, 20 mg/kg
Procedure: HPLC analysis of tipranavir in the rat plasma samples following administration of the various tipranavir disodium spray dried powders was conducted using an RP 8 column (Zorbax, DuPont) with a mobile phase consisting of methanolaqueous 0.05 M formate buffer, pH 4 ([…]).
The rat oral bioavailability of tipranavir disodium spray dried powders as well as the parent tipranavir disodium bulk drug were administered by intubation of the powders using a group of 7-8 rats (250-290 g) obtained from Taconic (Germantown, N.Y.). Intubation was achieved using a 10 cm (4 inch) section of Teflon tubing, […], containing a piece of cheese (American, fat free) inserted into the bottom of the tubing. The desired tipranavir disodium powdered bulk drug was placed into the tube and the tube was inserted into the stomach of the rat. The drug was displaced from the Teflon tubing and into the stomach by passing 2 ml of water through the tubing. The dose was 20 mg/kg in all cases.
The blood samples were processed with precipitation of the proteins with acetonitrile followed by centrifugation. The samples were assayed as described above.

Solubility = format: physicochemical; conditions: water, pH 6, water

- IDR, pH 2 0.01 N HCl ([1]; pH 2 0.01 N HCl, 37° C., 300 rpm, observed): 220 micrograms · cm^−2 · sec^−1
- Percent of pellet dissolved at pH 2 ([1]; pH 2 (0.01 N) HCl, 37° C., dissolution then stops): approximately 60%
- Percent dissolved in 60 minutes at pH 6 ([1]; 20 mg pellet, listed as Delavirdine mesylate alone): approximately 2%
- Percent dissolved in 60 minutes at pH 6 ([1]; 20 mg pellet, listed as pure delavirdine mesylate): less than 1%
- IDR, pH 6 with 0.5% SLS ([1]; pH 6 with 0.5% SLS, 37° C., 300 rpm, observed): 2 micrograms · cm^−2 · sec^−1
- Percent dissolved in less than 10 minutes at pH 6 ([1]; pH 6 with 0.6% SLS, less than 10 minutes, 20 mg pellet): less than 1%
SMILES: CC(C)Nc1cccnc1N1CCN(C(=O)c2cc3cc(NS(C)(=O)=O)ccc3[nH]2)CC1 [Delavirdine Mesylate, delavirdine mesylate]

- AUC(0-inf) ([2]; fasted, read-out: AUCInf, fasted): 23400 ng·h/mL
- AUC(0-inf) ([2]; fed, read-out: AUCInf, fed): 45800 ng·h/mL
SMILES: CCC[C@@]1(CCc2ccccc2)CC(O)=C([C@H](CC)c2cccc(NS(=O)(=O)c3ccc(C(F)(F)F)cn3)c2)C(=O)O1 [Tipranavir Disodium bulk drug, tipranavir disodium]

- solubility (Solubility): 5 to 10 µg/mL (≈ 8.3 to 16.6 µM)
SMILES: CCC[C@@]1(CCc2ccccc2)CC(O)=C([C@H](CC)c2cccc(NS(=O)(=O)c3ccc(C(F)(F)F)cn3)c2)C(=O)O1 [tipranavir]
